Columns and labels:
[1] = system: Brassica napus (winter rape, species Bristol); assay: Field trial of treated oilseed rape seed: plant biomass (determining the weight); assay type: in vivo; conditions: for Plant biomass (% - relative to untreated): standard treatment agent, rate not given, winter rape Bristol, untreated = 100
Procedure: (§1) The seed treated in accordance with the production examples described above was tested in field trials at a sowing rate of 4 kg per hectare. The individual test parameters were evaluated using the methods usually used in practice in each case, such as determining the weight for plant biomass and grading in the event of fungal infestation.
(§2) The increase in the plant biomass and the suppression of fungal infestation in both the exemplary embodiments of treatment of oilseed rape seed with fluquinconazole is higher compared with the untreated control and compared with the active substance dimethomorph which was co-tested as a reference and is used as the standard treatment agent in oilseed rape for protection against downy mildew.

downy mildew = assay: Field trial of treated oilseed rape seed: foliar infestation with downy mildew (grading); assay type: in vivo, Brassica napus; conditions: 24 days after sowing; standard treatment agent, rate not given; winter rape Bristol; untreated = 15
Procedure: as §1, §2

[2] = system: Fungal infestation of the leaves; assay: Field trial of treated oilseed rape seed: fungal infestation of the leaves (grading); assay type: in vivo, Brassica napus
Procedure: as §1, §2

[3] = system: Brassica napus (winter rape, species Express); assay: Field trial of treated oilseed rape seed: yield; assay type: in vivo; conditions: seed treatment; independent of the site
Procedure: as §1
The yield after a period of vegetation is higher after treatment of the oilseed rape seed with fluquinconazole compared with the untreated control. This effect is independent of the site.

[4] = seed treatment, both exemplary embodiments

| Compound | Plant biomass (% - relative to untreated) ([1]; 24 days after sowing) [%] | Plant biomass (% - relative to untreated) ([1]; 41 days after sowing) [%] | Foliar infestation with downy mildew (% total infestation) (downy mildew) | Fungal infestation of the leaves (% total infestation) ([2]; 41 days after sowing, standard treatment agent, rate not given, winter rape Bristol, untreated = 30) | Yield after a period of vegetation compared with the untreated control [3] | Increase in the plant biomass compared with the untreated control and with dimethomorph [1, 4] | Suppression of fungal infestation compared with the untreated control and with dimethomorph [2, 4] |
| --- | --- | --- | --- | --- | --- | --- | --- |
| COc1ccc(C(=CC(=O)N2CCOCC2)c2ccc(Cl)cc2)cc1OC [Dimethomorph] | 105 | 102 | 5 | 25 |  |  |  |
| O=c1c2cc(F)ccc2nc(-n2cncn2)n1-c1ccc(Cl)cc1Cl [fluquinconazole, 3-(2,4-dichlorophenyl)-6-fluoro-2-(1H-1,2,4-triazol-1-yl)-quinazolin-4(3H)-one] |  |  |  |  | higher | higher | higher |

— patent US20050181947A1, “Fungicidal seed treatment agent for oilseed rape” (BASF Agro BV., Amhem (NL)-Wadenswil-Branch, priority 2002, published 2005)
